Laboratory results taken from patent publication US20210361616A1, “AMELIORATING AGENT FOR FEMALE-SPECIFIC PHYSICAL AND/OR MENTAL UNPLEASANT SYMPTOM” (OTSUKA PHARMACEUTICAL CO., LTD., priority 2016, published 2021).

How the values were obtained:
Format in all cases: in vivo, human
[1] = test system: people who had any unpleasant symptom before menstruation; assay: Combined administration test of γ-tocopherol and equol, MDQ questionnaire; conditions: suggested by the results of Test Example 1 and Test Example 2; equol alone not administered
[2] = test system: people who had fluid retention before menstruation; assay: Administration test of γ-tocopherol alone, VAS questionnaire; conditions: 360 mg/day γ-tocopherol, 7 days, 25 people, placebo-controlled double-blind
Description: (§1) Twenty-five people who had fluid retention before menstruation were subjected to randomly-assigned placebo-controlled double-blind tested group comparative study. […] An evaluation period is between the morning of the 6th day after the start of the continuous ingestion and the morning of the 8th day […]. Evaluation by questionnaires was conducted before every meal. An average value of variations from a start value of the evaluation was obtained to compare the tested group with the placebo group.
(§2) The evaluation by questionnaires was conducted by VAS (visual analog scale) and MDQ (menstrual distress questionnaire).
(§3) For VAS, the subjects indicated their symptoms about each questionnaire on a scale of “0 mm” (no symptom) to “100 mm” (the symptom is very strong/the symptom affects daily living), and an average value of variations from a start value of the evaluation was calculated. For MDQ, the subjects answered each questionnaire on a six-point scale of “0” (no symptom) to “5” (the symptom is very strong/the symptom affects daily living).

[3] = test system: people who had fluid retention before menstruation; assay: Administration test of γ-tocopherol alone, MDQ questionnaire; conditions: 360 mg/day γ-tocopherol, 7 days, 25 people
Description: as §1, §2, §3

| SMILES | effects of equol alone on "pain", "negative emotion", "concentration ability" and "change in behavior" [1] | VAS "annoyance or irritability" (mental unpleasant symptoms) as compared with a placebo group [2] | VAS leg swelling (physical unpleasant symptoms) as compared with a placebo group [2] | proportion of people who had decreased MDQ scores as compared with the placebo group, "change in behavior" [3] [%] | proportion of people who had decreased MDQ scores as compared with the placebo group, item "concentration ability" [3] [%] | proportion of people who had decreased MDQ scores as compared with the placebo group, item "fluid retention" [3] [%] | proportion of people who had decreased MDQ scores as compared with the placebo group, item "negative emotion" [3] [%] | proportion of people who had decreased MDQ scores as compared with the placebo group, item "pain" [3] [%] |
| --- | --- | --- | --- | --- | --- | --- | --- | --- |
| Oc1ccc(C2COc3cc(O)ccc3C2)cc1 (centres unmarked) [equol] | has effects | – | – | – | – | – | – | – |
| Cc1c(O)cc2c(c1C)O[C@](C)(CCC[C@H](C)CCC[C@H](C)CCCC(C)C)CC2 [γ-tocopherol] | – | significant amelioration | significant amelioration | 32.0 | 36.0 | 56.0 | 28.0 | 44.0 |
